According to article PMC4494927, “Discovery of a small molecule targeting SET-PP2A interaction to overcome BCR-ABLT315I mutation of chronic myeloid leukemia” (Oncotarget, 2015):

Assays:
SET-PP2A interaction = molecular target: T1, SET-PP2A interaction (Homo sapiens, UniProt Q01105); test: Co-immunoprecipitation of SET and PP2Ac in K562 cells; type: cell-based; conditions: 24 h
T1 construct: SET and PP2Ac protein complexes were immunoprecipitated; endogenous in cells; host or cells: K562
Method: Protein samples (40 μg) were resolved on SDS-PAGE gels, transferred onto PVDF membranes (Millipore) and incubated overnight with primary antibodies to β-tubulin, BCR-ABL, p-BCR-ABL, SET, PP2Ac and p-PP2Ac. The membranes were incubated with horseradish peroxidase (HRP)-conjugated secondary antibody for 1 h, and the bands were visualized using an ECL detection kit following the manufacturer's instructions. For immunoprecipitation, cells were lysed in 20 mM Tris-HCl (pH 7.0), 150 mM NaCl, 1 mM EDTA, 1 mM MgCl and 0.5% NP-40 supplemented with a cocktail of protease and phosphatase inhibitors (Roche). Lysates (200 μg) were incubated with primary antibodies (1 μg) against SET or PP2Ac at 4 °C for 10 h, protein A/G plus agarose beads were then added for immunoprecipitation overnight at 4 °C. After wash, the immunoprecipitated proteins were separated by SDS-PAGE and analyzed by Western blotting.

K562 cells = test: Cytotoxicity assay (CellTiter-Glo); type: cell-based, human
Method: Twenty types of tumor cell lines were seeded at 4000 cells per well in 96-well plates. […] Cell viability was measured with the CellTiter-Glo Luminescent Cell Viability Assay (Promega) according to the manufacturer's instructions. Luminescence was measured using an EnVision Multilabel Plate Reader (Perkin-Elmer). The cytotoxicity of TGI1002 was expressed as the percentage of luminescence relative to that of untreated cells.

GSK3α = GSK3α (Homo sapiens, UniProt P49840); test: In vitro kinase assay (Kinase-Glo / ADP-Glo); type: biochemical; conditions: TGI1002 1 µM; means of two independent experiments; read-out: Inhibitory effect (%)
Method: (§1) All kinase reactions were carried out in 384-well plates. After addition of the compounds, kinase and ATP-substrate were added to the assay plates successively, the assay plates were centrifuged at 1,000 x g for 1 min and incubated for 1 h at 30 °C. Then, Kinase-Glo Plus or ADP-Glo reagent was added to each well. In Kinase-Glo assay, after addition of the reagent for 20 min, the luminescence was measured on an EnVision Multilabel Plate Reader (Perkin-Elmer). In ADP-Glo assay, after addition of the reagent for 40 min, Kinase Detection Reagent was added and incubated for another 30 min at 27 °C, and then the luminescence was measured. Kinase inhibition rates were calculated per manufacturer's instructions.

c-KIT = c-KIT (Homo sapiens, UniProt P10721); test: In vitro kinase assay (Kinase-Glo / ADP-Glo); type: biochemical; conditions: TGI1002 1 µM; means of two independent experiments; read-out: Inhibitory effect (%)
Method: as §1

FGFR1 = FGFR1 (Homo sapiens, UniProt P11362); test: In vitro kinase assay (Kinase-Glo / ADP-Glo); type: biochemical; conditions: TGI1002 1 µM; means of two independent experiments; read-out: Inhibitory effect (%)
Method: as §1

RAF1 = RAF1 (Homo sapiens, UniProt P04049); test: In vitro kinase assay (Kinase-Glo / ADP-Glo); type: biochemical; conditions: TGI1002 1 µM; means of two independent experiments; read-out: Inhibitory effect (%)
Method: as §1

ALK = ALK (Homo sapiens, UniProt Q9UM73); test: In vitro kinase assay (Kinase-Glo / ADP-Glo); type: biochemical; conditions: TGI1002 1 µM; means of two independent experiments; read-out: Inhibitory effect (%)
ALK, sequence (Q9UM73 19-1620): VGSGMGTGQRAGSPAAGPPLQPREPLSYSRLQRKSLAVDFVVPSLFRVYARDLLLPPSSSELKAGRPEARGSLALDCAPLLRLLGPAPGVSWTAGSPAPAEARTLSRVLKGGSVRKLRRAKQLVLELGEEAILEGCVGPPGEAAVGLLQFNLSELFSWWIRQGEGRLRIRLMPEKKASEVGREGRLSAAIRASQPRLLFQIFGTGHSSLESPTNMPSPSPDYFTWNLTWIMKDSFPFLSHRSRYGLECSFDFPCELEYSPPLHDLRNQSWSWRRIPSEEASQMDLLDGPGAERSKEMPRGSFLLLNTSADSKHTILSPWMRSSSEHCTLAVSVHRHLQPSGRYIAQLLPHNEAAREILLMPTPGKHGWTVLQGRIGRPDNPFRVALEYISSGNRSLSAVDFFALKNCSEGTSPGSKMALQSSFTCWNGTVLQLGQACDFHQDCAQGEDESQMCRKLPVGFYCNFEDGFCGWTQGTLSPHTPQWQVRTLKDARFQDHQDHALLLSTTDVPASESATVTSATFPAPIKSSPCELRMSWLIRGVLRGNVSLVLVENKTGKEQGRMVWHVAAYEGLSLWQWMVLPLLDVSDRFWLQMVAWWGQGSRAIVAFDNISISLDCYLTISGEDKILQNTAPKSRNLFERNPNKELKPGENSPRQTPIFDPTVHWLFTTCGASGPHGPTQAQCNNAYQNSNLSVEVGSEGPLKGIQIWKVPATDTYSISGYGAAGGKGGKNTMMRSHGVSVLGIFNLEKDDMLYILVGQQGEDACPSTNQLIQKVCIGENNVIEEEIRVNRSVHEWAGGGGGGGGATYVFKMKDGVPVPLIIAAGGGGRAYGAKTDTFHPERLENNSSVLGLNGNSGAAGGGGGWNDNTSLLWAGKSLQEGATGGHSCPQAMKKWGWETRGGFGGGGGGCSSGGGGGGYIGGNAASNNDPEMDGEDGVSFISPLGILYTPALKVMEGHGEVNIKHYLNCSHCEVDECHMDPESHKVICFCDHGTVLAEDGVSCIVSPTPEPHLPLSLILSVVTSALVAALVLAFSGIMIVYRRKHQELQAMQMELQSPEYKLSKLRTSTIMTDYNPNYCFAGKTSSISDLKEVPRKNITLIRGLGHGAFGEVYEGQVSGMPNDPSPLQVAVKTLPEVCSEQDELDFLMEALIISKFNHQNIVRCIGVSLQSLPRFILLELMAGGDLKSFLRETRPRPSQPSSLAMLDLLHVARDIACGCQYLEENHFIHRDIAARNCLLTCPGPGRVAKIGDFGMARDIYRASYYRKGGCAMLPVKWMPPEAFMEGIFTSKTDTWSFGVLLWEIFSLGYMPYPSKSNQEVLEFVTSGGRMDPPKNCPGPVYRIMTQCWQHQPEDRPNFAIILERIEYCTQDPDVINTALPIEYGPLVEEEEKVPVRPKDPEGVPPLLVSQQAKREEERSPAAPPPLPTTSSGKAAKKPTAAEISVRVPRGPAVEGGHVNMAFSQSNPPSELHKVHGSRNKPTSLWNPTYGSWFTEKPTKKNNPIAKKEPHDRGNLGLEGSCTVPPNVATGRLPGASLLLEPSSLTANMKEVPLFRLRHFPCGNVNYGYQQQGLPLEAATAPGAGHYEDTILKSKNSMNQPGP
Method: as §1

SRC = SRC (Homo sapiens, UniProt P12931); test: In vitro kinase assay (Kinase-Glo / ADP-Glo); type: biochemical; conditions: TGI1002 1 µM; means of two independent experiments; read-out: Inhibitory effect (%)
Method: as §1

c-KIT(V654A) = c-KIT(V654A) (Homo sapiens, UniProt P10721, V654A); test: In vitro kinase assay (Kinase-Glo / ADP-Glo); type: biochemical; conditions: TGI1002 1 µM; means of two independent experiments; read-out: Inhibitory effect (%)
Method: as §1

PLK1 = PLK1 (Homo sapiens, UniProt P53350); test: In vitro kinase assay (Kinase-Glo / ADP-Glo); type: biochemical; conditions: TGI1002 1 µM; means of two independent experiments; read-out: Inhibitory effect (%)
Method: as §1

EphB2 = EphB2 (Homo sapiens, UniProt P29323); test: In vitro kinase assay (Kinase-Glo / ADP-Glo); type: biochemical
EphB2, sequence (P29323 19-1055, species assumed): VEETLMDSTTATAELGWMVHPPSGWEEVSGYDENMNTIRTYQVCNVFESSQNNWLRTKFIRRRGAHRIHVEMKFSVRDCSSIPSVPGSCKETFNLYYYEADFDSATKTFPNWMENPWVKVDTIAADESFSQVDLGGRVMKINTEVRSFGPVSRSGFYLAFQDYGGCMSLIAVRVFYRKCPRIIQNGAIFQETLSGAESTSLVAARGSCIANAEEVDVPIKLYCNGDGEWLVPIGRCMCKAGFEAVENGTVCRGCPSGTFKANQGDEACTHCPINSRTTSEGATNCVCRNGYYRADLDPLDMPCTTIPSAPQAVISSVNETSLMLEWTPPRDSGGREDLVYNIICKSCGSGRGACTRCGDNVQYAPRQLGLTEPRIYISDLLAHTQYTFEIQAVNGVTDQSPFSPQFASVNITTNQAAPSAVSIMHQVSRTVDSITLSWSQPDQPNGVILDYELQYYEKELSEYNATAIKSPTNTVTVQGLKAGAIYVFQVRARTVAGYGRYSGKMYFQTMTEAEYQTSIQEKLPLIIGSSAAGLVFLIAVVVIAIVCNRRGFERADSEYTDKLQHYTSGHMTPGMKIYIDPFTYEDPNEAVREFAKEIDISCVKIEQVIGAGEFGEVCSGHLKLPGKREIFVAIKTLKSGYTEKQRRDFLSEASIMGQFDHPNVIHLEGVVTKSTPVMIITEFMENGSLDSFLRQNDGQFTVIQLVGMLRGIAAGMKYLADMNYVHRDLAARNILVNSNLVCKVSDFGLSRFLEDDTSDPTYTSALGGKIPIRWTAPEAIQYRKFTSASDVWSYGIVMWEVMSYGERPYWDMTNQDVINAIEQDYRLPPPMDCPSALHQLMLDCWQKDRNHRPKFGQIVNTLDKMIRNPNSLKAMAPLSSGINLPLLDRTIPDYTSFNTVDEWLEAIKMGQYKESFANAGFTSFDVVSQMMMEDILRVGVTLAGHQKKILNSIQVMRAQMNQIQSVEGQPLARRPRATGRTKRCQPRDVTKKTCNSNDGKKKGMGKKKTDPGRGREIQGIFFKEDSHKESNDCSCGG
Method: as §1

IGF1R = IGF1R (Homo sapiens, UniProt P08069); test: In vitro kinase assay (Kinase-Glo / ADP-Glo); type: biochemical; conditions: TGI1002 1 µM; means of two independent experiments; read-out: Inhibitory effect (%)
Method: as §1

RON = RON (Homo sapiens, UniProt Q04912); test: In vitro kinase assay (Kinase-Glo / ADP-Glo); type: biochemical; conditions: TGI1002 1 µM; means of two independent experiments; read-out: Inhibitory effect (%)
Method: as §1

CDK1/CyclinA2 = CDK1/CyclinA2 (Homo sapiens, UniProt P06493); test: In vitro kinase assay (Kinase-Glo / ADP-Glo); type: biochemical; conditions: TGI1002 1 µM; means of two independent experiments; read-out: Inhibitory effect (%)
Method: as §1

PI3Kβ = PI3Kβ (Homo sapiens, UniProt P42338); test: In vitro kinase assay (Kinase-Glo / ADP-Glo); type: biochemical; conditions: TGI1002 1 µM; means of two independent experiments; read-out: Inhibitory effect (%)
Method: as §1

PLK3 = PLK3 (Homo sapiens, UniProt Q9H4B4); test: In vitro kinase assay (Kinase-Glo / ADP-Glo); type: biochemical; conditions: TGI1002 1 µM; means of two independent experiments; read-out: Inhibitory effect (%)
Method: as §1

p38α = p38α (Homo sapiens, UniProt Q16539); test: In vitro kinase assay (Kinase-Glo / ADP-Glo); type: biochemical; conditions: TGI1002 1 µM; means of two independent experiments; read-out: Inhibitory effect (%)
p38α, sequence (Q16539 whole entry): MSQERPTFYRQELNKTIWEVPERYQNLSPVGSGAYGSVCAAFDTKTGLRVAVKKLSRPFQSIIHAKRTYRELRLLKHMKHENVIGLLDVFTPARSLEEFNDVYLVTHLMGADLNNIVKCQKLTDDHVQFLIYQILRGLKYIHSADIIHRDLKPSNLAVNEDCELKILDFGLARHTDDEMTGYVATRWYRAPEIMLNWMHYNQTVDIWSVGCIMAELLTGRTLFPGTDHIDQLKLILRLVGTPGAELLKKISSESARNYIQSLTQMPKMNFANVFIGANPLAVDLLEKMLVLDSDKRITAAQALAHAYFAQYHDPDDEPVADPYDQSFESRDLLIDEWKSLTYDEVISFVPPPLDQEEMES
Method: as §1

BRAF(v599E) = BRAF(v599E) (Homo sapiens, UniProt P15056, V600E); test: In vitro kinase assay (Kinase-Glo / ADP-Glo); type: biochemical; conditions: TGI1002 1 µM; means of two independent experiments; read-out: Inhibitory effect (%)
Method: as §1

AMPK (A1/B1/G1) = AMPK (A1/B1/G1) (Homo sapiens, UniProt Q13131); test: In vitro kinase assay (Kinase-Glo / ADP-Glo); type: biochemical; conditions: TGI1002 1 µM; means of two independent experiments; read-out: Inhibitory effect (%)
Method: as §1

PI3Kα = PI3Kα (Homo sapiens, UniProt P42336); test: In vitro kinase assay (Kinase-Glo / ADP-Glo); type: biochemical; conditions: TGI1002 1 µM; means of two independent experiments; read-out: Inhibitory effect (%)
Method: as §1

FLT3 = FLT3 (Homo sapiens, UniProt P36888); test: In vitro kinase assay (Kinase-Glo / ADP-Glo); type: biochemical; conditions: TGI1002 1 µM; means of two independent experiments; read-out: Inhibitory effect (%)
Method: as §1

PDGFRβ = PDGFRβ (Homo sapiens, UniProt P09619); test: In vitro kinase assay (Kinase-Glo / ADP-Glo); type: biochemical; conditions: TGI1002 1 µM; means of two independent experiments; read-out: Inhibitory effect (%)
PDGFRβ, sequence (P09619 33-1106): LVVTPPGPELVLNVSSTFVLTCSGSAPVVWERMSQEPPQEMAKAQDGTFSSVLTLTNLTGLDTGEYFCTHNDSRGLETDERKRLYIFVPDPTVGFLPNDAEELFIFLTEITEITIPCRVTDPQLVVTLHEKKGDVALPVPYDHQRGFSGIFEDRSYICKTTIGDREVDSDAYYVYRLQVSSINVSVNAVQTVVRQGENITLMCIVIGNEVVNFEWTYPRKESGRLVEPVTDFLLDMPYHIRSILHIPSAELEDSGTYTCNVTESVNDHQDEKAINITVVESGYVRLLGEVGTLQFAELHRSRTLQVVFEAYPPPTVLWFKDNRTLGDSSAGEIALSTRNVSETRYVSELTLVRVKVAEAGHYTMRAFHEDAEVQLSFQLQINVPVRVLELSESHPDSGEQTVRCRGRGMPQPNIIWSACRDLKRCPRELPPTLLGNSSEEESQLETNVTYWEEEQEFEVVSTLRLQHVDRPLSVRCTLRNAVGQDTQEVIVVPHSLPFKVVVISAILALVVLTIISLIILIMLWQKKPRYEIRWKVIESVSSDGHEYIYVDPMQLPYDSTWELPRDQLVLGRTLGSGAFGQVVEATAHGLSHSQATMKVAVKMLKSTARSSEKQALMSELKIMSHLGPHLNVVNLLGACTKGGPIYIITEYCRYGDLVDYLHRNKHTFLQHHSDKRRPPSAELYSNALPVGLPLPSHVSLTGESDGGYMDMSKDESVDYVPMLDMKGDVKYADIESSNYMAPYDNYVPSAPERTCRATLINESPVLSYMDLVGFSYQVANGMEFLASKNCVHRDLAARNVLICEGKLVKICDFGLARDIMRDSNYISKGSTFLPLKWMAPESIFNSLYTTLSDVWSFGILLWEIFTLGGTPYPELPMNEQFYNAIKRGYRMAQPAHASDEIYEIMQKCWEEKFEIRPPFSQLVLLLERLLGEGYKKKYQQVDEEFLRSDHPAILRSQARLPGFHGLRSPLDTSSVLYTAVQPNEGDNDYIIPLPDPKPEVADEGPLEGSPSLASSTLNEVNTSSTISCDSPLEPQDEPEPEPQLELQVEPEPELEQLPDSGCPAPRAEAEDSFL
Method: as §1

Aurora A = Aurora A (Homo sapiens, UniProt O14965); test: In vitro kinase assay (Kinase-Glo / ADP-Glo); type: biochemical; conditions: TGI1002 1 µM; means of two independent experiments; read-out: Inhibitory effect (%)
Aurora A, sequence (O14965 whole entry): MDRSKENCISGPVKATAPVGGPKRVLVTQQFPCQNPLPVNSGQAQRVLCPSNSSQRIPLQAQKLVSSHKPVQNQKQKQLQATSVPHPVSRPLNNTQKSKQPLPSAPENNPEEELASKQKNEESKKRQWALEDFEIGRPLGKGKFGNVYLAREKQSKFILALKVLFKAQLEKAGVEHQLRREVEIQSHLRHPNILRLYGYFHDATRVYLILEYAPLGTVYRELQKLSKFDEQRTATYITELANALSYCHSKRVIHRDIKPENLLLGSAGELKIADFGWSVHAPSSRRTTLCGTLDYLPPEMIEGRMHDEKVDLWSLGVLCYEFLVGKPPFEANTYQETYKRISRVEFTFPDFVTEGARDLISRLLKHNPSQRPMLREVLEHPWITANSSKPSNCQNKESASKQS
Method: as §1

ERK1 = ERK1 (Homo sapiens, UniProt P27361); test: In vitro kinase assay (Kinase-Glo / ADP-Glo); type: biochemical; conditions: TGI1002 1 µM; means of two independent experiments; read-out: Inhibitory effect (%)
ERK1, sequence (P27361 whole entry): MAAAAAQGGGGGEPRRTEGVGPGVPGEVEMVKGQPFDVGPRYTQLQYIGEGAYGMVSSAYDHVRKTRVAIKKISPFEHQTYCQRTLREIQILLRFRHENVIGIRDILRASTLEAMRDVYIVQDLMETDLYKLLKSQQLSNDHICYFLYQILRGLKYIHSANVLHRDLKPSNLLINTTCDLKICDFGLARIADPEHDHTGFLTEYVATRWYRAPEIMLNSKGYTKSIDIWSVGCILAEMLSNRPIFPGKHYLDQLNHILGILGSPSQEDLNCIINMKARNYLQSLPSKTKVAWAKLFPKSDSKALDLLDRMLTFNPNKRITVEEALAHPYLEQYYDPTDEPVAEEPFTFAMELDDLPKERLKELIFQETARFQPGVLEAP
Method: as §1

CDK2/CyclinA2 = CDK2/CyclinA2 (Homo sapiens, UniProt P24941); test: In vitro kinase assay (Kinase-Glo / ADP-Glo); type: biochemical; conditions: TGI1002 1 µM; means of two independent experiments; read-out: Inhibitory effect (%)
Method: as §1

PI3Kγ = PI3Kγ (Homo sapiens, UniProt P48736); test: In vitro kinase assay (Kinase-Glo / ADP-Glo); type: biochemical; conditions: TGI1002 1 µM; means of two independent experiments; read-out: Inhibitory effect (%)
Method: as §1

For `Cc1ccc(NC(=O)c2cccc(CN3CCN(C)CC3)c2)cc1Oc1nccc(-c2cccnc2)n1.Cl` [TGI1002, N-(4-methyl-3-((4-(pyridin-3-yl)-pyrimidin-2-yl)oxy)phenyl)-3-((4-methylpiperazin-1-yl)methyl)benzamide hydrochloride], the “association between SET and PP2A” value (SET-PP2A interaction) was “trend of decrease”, the IC50 (K562 cells; Homo sapiens, 72 h, cell viability) was 11 ± 1.98 µM and the “fold less potent than imatinib” value (K562 cells; IC50 at 72 h) was “approximately 35 fold”. It also gave an inhibition at 1 µM (GSK3α) of 2.6%, an inhibition at 1 µM (c-KIT) of 15.2% and an inhibition at 1 µM (FGFR1) of 9.71%. The inhibition at 1 µM (RAF1) was 5.37%, the inhibition at 1 µM (ALK) was 4.27% and the inhibition at 1 µM (SRC) was 1.09%. The inhibition at 1 µM (c-KIT(V654A)) was 11.7%, the inhibition at 1 µM (PLK1) was 1.63% and the IC50 (EphB2; EphB2 kinase activity) was 1.27 µM. The inhibition at 1 µM (EphB2; TGI1002 1 µM, means of two independent experiments, read-out: Inhibitory effect (%)) was 46.7%, the inhibition at 1 µM (IGF1R) was 8.65% and the inhibition at 1 µM (RON) was 0.14%. The inhibition at 1 µM (CDK1/CyclinA2) was 5.27%, the inhibition at 1 µM (PI3Kβ) was 0% and the inhibition at 1 µM (PLK3) was 4.71%. The inhibition at 1 µM (p38α) was 2.17%, the inhibition at 1 µM (BRAF(v599E)) was 3.61% and the inhibition at 1 µM (AMPK (A1/B1/G1)) was 0.19%. The inhibition at 1 µM (PI3Kα) was 2.66%, the inhibition at 1 µM (FLT3) was 2.97% and the inhibition at 1 µM (PDGFRβ) was 17.2%. For the same molecule, the inhibition at 1 µM (Aurora A) was 24.6%, the inhibition at 1 µM (ERK1) was 0.01% and the inhibition at 1 µM (CDK2/CyclinA2) was 1.54%. For the same molecule, the inhibition at 1 µM (PI3Kγ) was 2.65%.
